Measurements taken from PubChem BioAssay AID248 (DTP/NCI, 2004).
“And” between values parts separate entries of the source, which are not always exact repeats. Equal entries are not always repeated. Inconclusive results and toxic doses are left out. No stated cut-off is given here; in the data, active means T/C of 150% or more; inactive means T/C below 125%.

Test system: L1210 leukemia ip in BDF1 mice, survival T/C
Assay: NCI In Vivo Anticancer Drug Screen. Data for tumor model L1210 Leukemia (intraperitoneal) in B6D2F1 (BDF1) mice
Details: endpoint: mean survival time, higher = longer survival
Procedure, shortened: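 Transplanted-tumor mice were given test agent; controls received vehicle only. Survival readings from the two groups were divided (treated over control).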

[1] = dose: 100.0 mg/kg/injection, schedule: Q04DX002 (ip), vehicle: saline with Tween-80
[2] = dose: 200.0 mg/kg/injection, schedule: Q04DX002 (ip), vehicle: saline with Tween-80
[3] = dose: 400.0 mg/kg/injection, schedule: Q04DX002 (ip), vehicle: saline with Tween-80
[4] = dose: 100.0 mg/kg/injection, schedule: Q04DX003 (ip), vehicle: water
[5] = dose: 100.0 mg/kg/injection, schedule: Q04DX003 (ip), vehicle: Klucel (hydroxypropylcellulose) (HPC)
[6] = dose: 200.0 mg/kg/injection, schedule: Q04DX003 (ip), vehicle: Klucel (hydroxypropylcellulose) (HPC)
[7] = dose: 400.0 mg/kg/injection, schedule: Q04DX003 (ip), vehicle: Klucel (hydroxypropylcellulose) (HPC)
[8] = dose: 100.0 mg/kg/injection, schedule: Q01DX005 (ip), vehicle: saline
[9] = dose: 100.0 mg/kg/injection, schedule: Q04DX003 (ip), vehicle: saline with Tween-80
[10] = dose: 200.0 mg/kg/injection, schedule: Q04DX003 (ip), vehicle: saline with Tween-80
[11] = dose: 100.0 mg/kg/injection, schedule: Q01DX009 (ip), vehicle: Klucel (hydroxypropylcellulose) (HPC)
[12] = dose: 200.0 mg/kg/injection, schedule: Q01DX009 (ip), vehicle: Klucel (hydroxypropylcellulose) (HPC)
[13] = dose: 400.0 mg/kg/injection, schedule: Q01DX009 (ip), vehicle: Klucel (hydroxypropylcellulose) (HPC)
[14] = dose: 100.0 mg/kg/injection, schedule: Q01DX001 (ip), vehicle: saline
[15] = dose: 200.0 mg/kg/injection, schedule: Q01DX001 (ip), vehicle: saline

Measured: T/C

CCCCCCC(C)N(C)CCOC(=O)c1ccc([N+](=O)[O-])cc1 (centres undefined)
inactive: dose: 75.0 mg/kg/injection, schedule: Q01DX001 (ip), vehicle: other 101 % of control | dose: 150.0 mg/kg/injection, schedule: Q01DX001 (ip), vehicle: other 106 % of control

COC1OCC2OC(C)(C)OC2C1OS(=O)(=O)c1ccc([N+](=O)[O-])cc1 (centres undefined)
inactive: dose: 100.0 mg/kg/injection, schedule: Q01DX001 (ip), vehicle: carboxymethylcellulose (CMC) 95 % of control | dose: 200.0 mg/kg/injection, schedule: Q01DX001 (ip), vehicle: carboxymethylcellulose (CMC) 95 % of control | dose: 400.0 mg/kg/injection, schedule: Q01DX001 (ip), vehicle: carboxymethylcellulose (CMC) 101 % of control

CCOC(=O)/C(C#N)=C(\CCc1ccccc1)CC(C)C
inactive: [1] 101 % of control | [2] 101 % of control | [3] 104 % of control

CCP(c1ccccc1)c1ccccc1
inactive: dose: 75.0 mg/kg/injection, schedule: Q01DX009 (ip), vehicle: saline sonified 101 % of control | dose: 100.0 mg/kg/injection, schedule: Q01DX001 (ip), vehicle: saline sonified 92 % of control | dose: 150.0 mg/kg/injection, schedule: Q01DX009 (ip), vehicle: saline sonified 94 % of control | dose: 200.0 mg/kg/injection, schedule: Q01DX001 (ip), vehicle: saline sonified 97 % of control | dose: 300.0 mg/kg/injection, schedule: Q01DX009 (ip), vehicle: saline sonified 106 % of control | dose: 400.0 mg/kg/injection, schedule: Q01DX001 (ip), vehicle: saline sonified 103 % of control

Nc1ccn(CC(=O)c2ccc(Cl)s2)c(=O)n1
inactive: dose: 100.0 mg/kg/injection, schedule: Q01DX009 (ip), vehicle: water 95 % of control | [4] 101 % of control | dose: 200.0 mg/kg/injection, schedule: Q01DX009 (ip), vehicle: water 101 % of control | dose: 200.0 mg/kg/injection, schedule: Q04DX003 (ip), vehicle: water 100 % of control | dose: 400.0 mg/kg/injection, schedule: Q04DX003 (ip), vehicle: water 102 % of control

CCOC(=O)Cn1c(=O)c2ccccc2c2cc([N+](=O)[O-])ccc21
inactive: [5] 95 % of control | [6] 97 % of control | [7] 86 % of control

NC(=O)OCC1OC(n2ccc(=O)[nH]c2=O)C(O)C1O (centres undefined)
inactive: [8] 105 % of control

CCO/C(C)=C(/C(C)=O)C(=O)NC1CCCCC1
inactive: dose: 100.0 mg/kg/injection, schedule: Q01DX009 (ip), vehicle: saline with Tween-80 100 % of control | [9] 101 % of control | dose: 200.0 mg/kg/injection, schedule: Q01DX009 (ip), vehicle: saline with Tween-80 100 % of control | [10] 95 % of control | dose: 400.0 mg/kg/injection, schedule: Q01DX009 (ip), vehicle: saline with Tween-80 102 % of control | dose: 400.0 mg/kg/injection, schedule: Q04DX003 (ip), vehicle: saline with Tween-80 98 % of control

CC(=O)c1ccc(OC(=O)Nc2ccc(Cl)cc2)cc1
inactive: dose: 25.0 mg/kg/injection, schedule: Q01DX009 (ip), vehicle: saline with Tween-80 106 % of control and 108 % of control | dose: 50.0 mg/kg/injection, schedule: Q01DX009 (ip), vehicle: saline with Tween-80 106 % of control and 112 % of control | [1] 100 % of control and 103 % of control | [9] 103 % of control | [2] 95 % of control and 92 % of control | [10] 108 % of control | [3] 97 % of control and 100 % of control

Nc1ncnc2c1ncn2C1OC(COP(=O)(O)O)C(O)C1OCc1ccccc1 (centres undefined)
inactive: [8] 112 % of control | dose: 200.0 mg/kg/injection, schedule: Q01DX005 (ip), vehicle: saline 95 % of control

C[n+]1cc2c3ccccc3c(N)cc2c2ccccc21
inactive: dose: 6.25 mg/kg/injection, schedule: Q01DX009 (ip), vehicle: water 114 % of control | dose: 12.5 mg/kg/injection, schedule: Q01DX009 (ip), vehicle: water 118 % of control | dose: 25.0 mg/kg/injection, schedule: Q01DX009 (ip), vehicle: water 117 % of control | dose: 25.0 mg/kg/injection, schedule: Q04DX003 (ip), vehicle: water 118 % of control | dose: 50.0 mg/kg/injection, schedule: Q01DX009 (ip), vehicle: water 90 % of control | dose: 50.0 mg/kg/injection, schedule: Q04DX003 (ip), vehicle: water 98 % of control | [4] 93 % of control and 107 % of control

CC1=CC2=NC(=O)C(c3ccccc3)C(=O)N2C=C1 (centres undefined)
inactive: [11] 90 % of control | [5] 90 % of control | [12] 100 % of control | [6] 103 % of control | [13] 86 % of control | [7] 97 % of control

CON(C)S(=O)(=O)c1ccc(Cl)cc1
inactive: [5] 100 % of control | [6] 103 % of control | [7] 105 % of control

O=C(Nc1cc(Cl)ccc1Cl)c1ccccc1Cl
inactive: [11] 94 % of control | [5] 102 % of control | [12] 87 % of control | [6] 97 % of control | [13] 92 % of control | [7] 91 % of control

C1CC2CC2CCC2CC12 (centres undefined)
inactive: [11] 104 % of control | [5] 101 % of control | [12] 95 % of control | [6] 95 % of control | [13] 102 % of control | [7] 101 % of control

Cn1c(=O)cc(C=Nc2ccc(O)cc2)c2ccccc21
inactive: [14] 94 % of control | [15] 98 % of control

O=C(c1ccccc1)c1cc2ccccc2n1S(=O)(=O)c1ccccc1
inactive: dose: 100.0 mg/kg/injection, schedule: Q04DX002 (ip), vehicle: Klucel (hydroxypropylcellulose) (HPC) 95 % of control | dose: 200.0 mg/kg/injection, schedule: Q04DX002 (ip), vehicle: Klucel (hydroxypropylcellulose) (HPC) 98 % of control | dose: 400.0 mg/kg/injection, schedule: Q04DX002 (ip), vehicle: Klucel (hydroxypropylcellulose) (HPC) 95 % of control

CCc1nc2nnnn2c(CC)c1-c1ccccc1O
inactive: [1] 98 % of control | [2] 104 % of control | [3] 88 % of control

CC(C)C1CCC(NC(=O)NCCF)CC1 (centres undefined)
inactive: dose: 9.5 mg/kg/injection, schedule: Q01DX001 (ip), vehicle: other 105 % of control | dose: 19.0 mg/kg/injection, schedule: Q01DX001 (ip), vehicle: other 100 % of control | dose: 38.0 mg/kg/injection, schedule: Q01DX001 (ip), vehicle: other 102 % of control

Cc1ccn(-c2cc(NS(=O)(=O)c3ccccc3)c3ccccc3c2NS(=O)(=O)c2ccccc2)c(=O)c1
inactive: dose: 50.0 mg/kg/injection, schedule: Q01DX001 (ip), vehicle: Klucel (hydroxypropylcellulose) (HPC) 107 % of control | dose: 100.0 mg/kg/injection, schedule: Q01DX001 (ip), vehicle: Klucel (hydroxypropylcellulose) (HPC) 94 % of control | dose: 200.0 mg/kg/injection, schedule: Q01DX001 (ip), vehicle: Klucel (hydroxypropylcellulose) (HPC) 97 % of control

NC(CC(=O)N/C=N\O)C(=O)O (centres undefined)
inactive: dose: 50.0 mg/kg/injection, schedule: Q01DX001 (ip), vehicle: saline 98 % of control | [14] 102 % of control | [15] 104 % of control | dose: 400.0 mg/kg/injection, schedule: Q01DX001 (ip), vehicle: saline 104 % of control
